Measurements published in article PMC3578935, “Biochemical Characterization of CTX-M-15 from Enterobacter cloacae and Designing a Novel Non-β-Lactam-β-Lactamase Inhibitor” (PLoS ONE, 2013).
Converted amounts (≈) assume the structure as drawn. “Also recorded” adds a separate entry of the source. Where two headings read alike, the source gives them in different places.

Legend:
[1] = system: E. coli DH5α (Null Plasmid); test: MIC by micro-dilution, null plasmid control strain; assay type: cell-based; conditions: Escherichia coli, read-out: MIC DH5α(Null Plasmid)
[2] = molecular target: T1, CTX-M-15 (Escherichia coli, UniProt Q9EXV5); assay type: biochemical, Enterobacter cloacae; set-up: His tag (inferred from the pQE-2 vector and Ni-NTA purification); made in house; host or cells: E. coli BL21 (DE3)
[3] = molecular target: T1, CTX-M-15; conditions: for k cat: 50 mM phosphate buffer pH 7.0, 30°C; for K m or K i: K m for good substrates, for poor substrates (ceftazidime, cefepime, aztreonam) determined as K i against 100 µM nitrocefin
Experimental: The inhibitors used were Clavulanic acid, Sulabctam, Tazobactam and ZINC03787097.
Hydrolysis of β-lactam antibiotics was detected by monitoring the variation in the absorbance due to cleavage of β-lactam ring in 50 mM phosphate buffer, pH 7.0 [28]. All the measurements were taken in triplicate on Shimadzu UV-VIS spectrophotometer (UV-1800). The reaction was performed in a total volume of 500 µl at 30°C. For dilution of the enzyme and to prevent denaturation, BSA was added to a final concentration of 20 µg/ml.

[4] = system: CC(C)(O/N=C(\C(=O)N[C@@H]1C(=O)N2C(C(=O)[O-])=C(C[n+]3ccccc3)CS[C@H]12)c1csc(N)n1)C(=O)O; test: purified protein, by the assay type; conditions: other: 50 mM phosphate buffer pH 7.0, 30°C
[5] = system: CO/N=C(\C(=O)N[C@@H]1C(=O)N2C(C(=O)O)=C(COC(N)=O)CS[C@H]12)c1ccco1; test: purified protein, by the assay type; conditions: other: 50 mM phosphate buffer pH 7.0, 30°C
[6] = system: C[C@]1(Cn2ccnn2)[C@H](C(=O)O)N2C(=O)C[C@H]2S1(=O)=O; test: purified protein, by the assay type; conditions: other: slope of k i versus inhibitor concentration
From the text: (§1) The parameters k +2, k +3 and K′ are the first-order acylation and deacylation constants, and the dissociation constant of the Henri-Michaelis complex, respectively.
(§2) where, v o, v t and v ss are the rates of utilization of the reporter substrate at times 0 and t, and after the steady-state has been established, respectively.
(§3) The individual parameters, k +2, k +3 and K′, were derived from the dependence of k i upon inhibitor concentration, [C], on the basis of the following equation: [drawing 10]
(§4) When the concentration of inhibitor [C] is well below K′, k i varies linearly the above equations is simplified as: [drawing 11]
(§5) The k +2/K′ value is then obtained from the slope of the line, whereas k +3 is given by the intercept at [C] = 0. Conversely, if [C] is much larger than K′ (K m+[S])/K m, then k i = k +2+k +3, and is independent of [C]

[7] = system: CO/N=C(\C(=O)N[C@@H]1C(=O)N2C(C(=O)O)=C(CSc3nc(=O)c(=O)[nH]n3C)CS[C@H]12)c1csc(N)n1; test: purified protein, by the assay type; conditions: other: 50 mM phosphate buffer pH 7.0, 30°C
[8] = system: CCN1CCN(C(=O)N[C@@H](C(=O)N[C@@H]2C(=O)N3[C@@H]2SC(C)(C)[C@@H]3C(=O)O)c2ccccc2)C(=O)C1=O; test: purified protein, by the assay type; conditions: other: 50 mM phosphate buffer pH 7.0, 30°C
[9] = system: CC1(C)S[C@@H]2[C@H](NC(=O)[C@H](N)c3ccccc3)C(=O)N2[C@H]1C(=O)O; test: purified protein, by the assay type; conditions: other: 50 mM phosphate buffer pH 7.0, 30°C
[10] = system: O=C(Cc1cccs1)N[C@@H]1C(=O)N2C(C(=O)O)=C(/C=C/c3ccc([N+](=O)[O-])cc3[N+](=O)[O-])CS[C@H]12; test: purified protein, by the assay type; conditions: other: 50 mM phosphate buffer pH 7.0, 30°C
[11] = system: CO/N=C(\C(=O)N[C@@H]1C(=O)N2C(C(=O)O)=C(COC(C)=O)CS[C@H]12)c1csc(N)n1; test: purified protein, by the assay type; conditions: other: 50 mM phosphate buffer pH 7.0, 30°C
[12] = system: E. coli DH5α transformed with recombinant bla CTX-M-15 (pQE-2-CTX-M-15); test: MIC by micro-dilution, β-lactams alone or with inhibitors; assay type: cell-based; conditions: for MIC: Escherichia coli, read-out: MIC DH5α(pQE-2-CTX-M-15), E. coli DH5α with bla CTX-M-15 cloned from E. cloacae EC-15; for MIC / MIC DH5α(pQE-2-CTX-M-15): in combinations clavulanic acid, sulbactam, tazobactam at 4 µg/ml; for fold lowering of MIC of cefotaxime in combination with inhibitor: DH5α transformed with bla CTX-M-15; for MIC DH5α(pQE-2-CTX-M-15): E. coli DH5α with bla CTX-M-15 cloned from E. cloacae EC-15
Experimental: E. coli DH5α and E. coli BL21 (DE3) were used for cloning and protein expression experiments, respectively. MICs were determined on E. coli DH5α transformed with cloned CTX-M-15 from Enterobacter cloacae clinical strain EC-15.
The MICs for various antibiotics alone or in combination with various inhibitors (clavulanic acid, sulbactam, tazobactam and ZINC03787097) were determined by micro-dilution method and the results were interpreted according to Clinical Laboratory Standards Institute (CLSI) guidelines. Briefly, E. coli DH5α cells transformed with CTX-M-15 was treated with increasing concentrations of the antibiotics ranging from 0.5 to 2000 µg/ml in a series of two fold dilutions. The inhibitors clavulanic acid, sulbactam and tazobactam were used at a fixed concentration of 4 µg/ml, while ZINC03787097 was used at 20 µg/ml.

[13] = molecular target: T1, CTX-M-15; test: IC50 determination, nitrocefin hydrolysis after 5 min pre-incubation; assay type: biochemical, Enterobacter cloacae; set-up: His tag (inferred from the pQE-2 vector and Ni-NTA purification); made in house; host or cells: E. coli BL21 (DE3); conditions: IC50, 5 min pre-incubation at 30°C; 100 µM nitrocefin
Experimental: The 50% inhibitory concentration (IC50) was determined as the concentration of the inhibitor that inhibited hydrolytic activity of the enzyme by 50%.

[14] = molecular target: T1, CTX-M-15; test: Enzyme inhibition kinetics (acylation/deacylation, competition with nitrocefin); conditions: for K′: dissociation constant of the Henri-Michaelis complex; for k +2 x 10^−2: first-order acylation constant, values x 10^−2
From the text: as §1, §2, §3, §4, §5

[15] = molecular target: T1, CTX-M-15; test: Stability of ZINC03787097 in the presence of CTX-M-15 (UV absorbance); assay type: biochemical, Enterobacter cloacae; set-up: His tag (inferred from the pQE-2 vector and Ni-NTA purification); made in house; host or cells: E. coli BL21 (DE3); conditions: 100 µM inhibitor, 10 nM CTX-M-15, 3600 seconds, absorbance at 283 nm and 222 nm
Experimental: The UV absorption spectrum (320-210 nm) of ZINC03787097 (100 µM) alone or after 3600 seconds incubation with CTX-M-15 (10 nM) was measured in 50 mM phosphate buffer, pH 7.0 at 30°C on Shimadzu UV-VIS spectrophotometer (UV-1800). The stability of ZINC03787097 in the presence of CTX-M-15 was monitored by measuring the absorbance for 3600 seconds at 283 nm and 222 nm.

[16] = in combinations clavulanic acid, sulbactam, tazobactam at 4 µg/ml, ZINC03787097 at 20 µg/ml
[17] = K i calculated as K i = k +3 K/k +2, calculated value
[18] = K i, determined at steady-state, competition with 100 µM nitrocefin

Cc1nnc(SCC2=C(C(=O)O)N3C(=O)[C@@H](NC(=O)Cn4cnnn4)[C@H]3SC2)s1 [Cefazolin]
MIC [1]: 2 µg/mL (≈ 4.4 µM)

O=C(Cc1cccs1)N[C@@H]1C(=O)N2C(C(=O)O)=C(/C=C/c3ccc([N+](=O)[O-])cc3[N+](=O)[O-])CS[C@H]12 [Nitrocefin]
K m for nitrocefin hydrolysis ([2]; 0.00 µM ZINC03787097, 0.50 nM CTX-M-15): 42 µM
k cat [3]: 582 s⁻¹
K m or K i [3]: 35 ± 4 µM

CTX-M-15 (Escherichia coli)
kcat [4]: 1.51 ± 0.03 s⁻¹
kcat/Km [4]: 1200 M⁻¹ s⁻¹
kcat [5]: 87 ± 2 s⁻¹
kcat/Km [5]: 3e+06 M⁻¹ s⁻¹
kcat/Km [6]: 440000 M⁻¹ s⁻¹
kcat [7]: 82 ± 5 s⁻¹
kcat/Km [7]: 2.5e+06 M⁻¹ s⁻¹
kcat [8]: 58 ± 4 s⁻¹
kcat/Km [8]: 1.8e+06 M⁻¹ s⁻¹
kcat [9]: 57 ± 3 s⁻¹
kcat/Km [9]: 3.8e+06 M⁻¹ s⁻¹
kcat [10]: 582 s⁻¹
kcat/Km [10]: 1.66e+07 M⁻¹ s⁻¹
kcat [11]: 222 ± 7 s⁻¹
kcat/Km [11]: 3.7e+06 M⁻¹ s⁻¹

CO[C@@]1(NC(=O)Cc2cccs2)C(=O)N2C(C(=O)O)=C(COC(N)=O)CS[C@@H]21 [Cefoxitin]
MIC [1, 16]: 2 µg/mL
MIC ([12]; ZINC03787097 at 20 µg/ml): 16 µg/mL

CC1(C)S[C@@H]2[C@H](NC(=O)[C@H](N)c3ccccc3)C(=O)N2[C@H]1C(=O)O [Ampicillin]
K m or K i [3]: 15 ± 2 µM
MIC [1, 16]: 2 µg/mL

C[C@]1(Cn2ccnn2)[C@H](C(=O)O)N2C(=O)C[C@H]2S1(=O)=O [Tazobactam]
IC50 [13]: 0.001 µM
Ki [14, 17]: 0.013 µM
Ki [14, 18]: 0.017 µM
K′ [14]: 0.03 µM
k +2 x 10^−2 [14]: 1.3 s^−1
fold lowering of MIC of cefotaxime in combination with inhibitor [12]: 8 fold
fold reduction of MICs of β-lactam antibiotics ([12]; inhibitor in combination with β-lactam antibiotics): 2–16 folds

CO/N=C(\C(=O)N[C@@H]1C(=O)N2C(C(=O)[O-])=C(C[N+]3(C)CCCC3)CS[C@H]12)c1csc(N)n1 [Cefepime]
MIC [1]: 0.25 µg/mL (≈ 0.52 µM)
MIC DH5α(pQE-2-CTX-M-15) ([12]; ZINC03787097 at 20 µg/ml, listed as Cefepime (IV)): 128 µg/ml
MIC ([12]; ZINC03787097 at 20 µg/ml): 125 µg/mL

CO/N=C(\C(=O)N[C@@H]1C(=O)N2C(C(=O)O)=C(CSc3nc(=O)c(=O)[nH]n3C)CS[C@H]12)c1csc(N)n1 [Ceftriaxone]
K m or K i [3]: 33 ± 2 µM
MIC [1, 16]: 0.06 µg/mL

CO/N=C(\C(=O)N[C@@H]1C(=O)N2C(C(=O)O)=C(COC(C)=O)CS[C@H]12)c1csc(N)n1 [Cefotaxime]
K m or K i [3]: 60 ± 3 µM
MIC [1, 16]: 0.25 µg/mL
MIC DH5α(pQE-2-CTX-M-15) ([12]; ZINC03787097 at 20 µg/ml, listed as Cefotaxime (III)): 512 µg/ml
MIC ([12]; ZINC03787097 at 20 µg/ml): 500 to 1000 µg/mL

CCN1CCN(C(=O)N[C@@H](C(=O)N[C@@H]2C(=O)N3[C@@H]2SC(C)(C)[C@@H]3C(=O)O)c2ccccc2)C(=O)C1=O [Piperacillin]
K m or K i [3]: 32 ± 5 µM
MIC [1, 16]: 1 µg/mL

O=C(O)[C@H]1/C(=C/CO)O[C@@H]2CC(=O)N21 [Clavulanic acid]
IC50 [13]: 0.014 µM
Ki [14, 17]: 0.106 µM
Ki [14, 18]: 0.099 µM
K′ [14]: 0.72 µM
k +2 x 10^−2 [14]: 1.3 s^−1
fold lowering of MIC of cefotaxime in combination with inhibitor [12]: 16 fold

CC1(C)[C@H](C(=O)O)N2C(=O)C[C@H]2S1(=O)=O [Sulbactam]
IC50 [13]: 0.212 µM
Ki [14, 17]: 0.131 µM
Ki [14, 18]: 0.062 µM
K′ [14]: 0.55 µM
k +2 x 10^−2 [14]: 1.6 s^−1
fold lowering of MIC of cefotaxime in combination with inhibitor [12]: 2 fold

CO/N=C(\C(=O)N[C@@H]1C(=O)N2C(C(=O)O)=C(COC(N)=O)CS[C@H]12)c1ccco1 [Cefuroxime]
K m or K i [3]: 29 ± 2 µM
MIC [1, 16]: 1 µg/mL

CC#CCC(C)C(O)C=CC1C(O)CC2Oc3c(CCCC(=O)O)cccc3C21 (stereo not drawn) [ZINC03787097]
hydrolysis of inhibitor by CTX-M-15 [15]: no detectable hydrolysis; also recorded: negligible hydrolysis
IC50 [13]: 0.18 µM
K m for nitrocefin hydrolysis in the presence of inhibitor ([2]; 0.25 µM ZINC03787097, 0.50 nM CTX-M-15): 67 µM
K m for nitrocefin hydrolysis in the presence of inhibitor ([2]; 0.50 µM ZINC03787097, 0.50 nM CTX-M-15): 94 µM
K m for nitrocefin hydrolysis in the presence of inhibitor ([2]; 0.75 µM ZINC03787097, 0.50 nM CTX-M-15): 96 µM
mode of inhibition ([2]; Lineweaver-Burg plot): reversible inhibitor; also recorded: competitive inhibition
Vmax of nitrocefin hydrolysis ([2]; similar at 0.00-0.75 µM ZINC03787097): 3.22e-07 M/s
Ki [14, 18]: 0.388 µM
fold lowering of MIC of cefotaxime in combination with inhibitor [12]: 2 fold
effect on MICs of antibiotics of cephalosporin group ([12]; ZINC03787097 at 20 µg/ml): reduced in the presence of ZINC03787097 to a level observed in the case of antibiotic-sulbactam combination

C[C@H]1[C@H](NC(=O)/C(=N\OC(C)(C)C(=O)O)c2csc(N)n2)C(=O)N1S(=O)(=O)O [Aztreonam]
MIC [1]: 0.25 µg/mL (≈ 0.574 µM)
MIC ([12]; ZINC03787097 at 20 µg/ml): 16 µg/mL

CC(C)(O/N=C(\C(=O)N[C@@H]1C(=O)N2C(C(=O)[O-])=C(C[n+]3ccccc3)CS[C@H]12)c1csc(N)n1)C(=O)O [Ceftazidime]
k cat [3]: 1.51 s⁻¹
K m or K i [3]: 1209 µM
K m or K i ([3]; listed as Ceftazidime (III)): 1209 ± 91 µM
MIC [1, 16]: 0.25 µg/mL
MIC ([12]; ZINC03787097 at 20 µg/ml): 4 µg/mL
